The record followed here is patent US8940739B2, “Compound of a reverse-turn mimetic and a production method and use therefor” (JW Pharmaceutical Corporation, priority 2010, dated 2015).

SMILES strings stand for the structures. Values after ≈ are worked out from the molar mass of the structure shown.

In series [1] the test system is MV-4-11 (human, Acute Myeloid Leukemia cell line) cells. The series can be described thus: Cell growth inhibition assay, GI50 of MV-4-11. It is filed as cell-based. As to conditions: Homo sapiens, MV4-11, 72 h, MV-4-11 cells. A digest of the protocol: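 MV-4-11 AML cells (5×10^4/well, IMDM with 10% FBS) treated in duplicate with serially diluted compounds for 72 hours at 37 °C. Viability read as absorbance at 490 nm after CellTiter 96 Aqueous One (MTS) addition; GI50 calculated from the concentration-response.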

For series [2], the target named is cDNA-expressed human hepatic CYP3A4 (Homo sapiens (Human), UniProt P08684). The series can be described thus: Measurement of CYP (IC50 of P450 CYP3A4), BFC substrate. It is filed as in vitro ADME. As to conditions: 20 minutes. A digest of the protocol:
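cDNA-expressed human CYP3A4 supersomes in 0.1M potassium phosphate pH 7.4 with 8.3 mM MgCl2, 1.67 mM EDTA and 0.25 mM NADPH; compounds in acetonitrile (<1% final). Reaction started with 30 µM BFC, 20 min at 37. 7-Hydroxy-4-trifluoromethyl-coumarin read by fluorescence (ex 409/em 530 nm).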

The nature of series [3]: MLM, hepatic metabolic stability. The settings on record: mouse hepatic microsome, amount at 30 minutes compared with 0 minutes. In kind it is in vitro ADME. How it is done: For the sake of retaining efficacy of novel drugs and preventing side-effects, hepatic metabolic stability is regarded as very important. Hepatic metabolic stability is typically determined using microsome or S9. In the present test, a microsome having CYP450 as a main component, which plays a great role in metabolism, was used to evaluate the metabolic stability.
This assay was performed in a 200 l volume in a 13 ml glass tube using mouse hepatic microsome whose activity was measured.
The compounds of Examples 1 to 5 were dissolved in DMSO (dimethyl sulfoxide) to prepare a 25 mM stock solution, which was then diluted with 50% acetonitrile and used in the test. A potassium phosphate buffer (pH 7.4, final concentration 0.1M), MgCl2 (final concentration 0.1M), a diluted inventive compound stock solution (final concentration 1 mM), and a mouse microsome (final concentration 5 mg/ml) were added to the glass tube. The reaction was initiated by the addition of a cofactor NADPH (final concentration 12.5 mM) after pre-incubation at 37 for 3 minutes. The reaction was carried out at 37 for 10 minutes and 30 minutes, and then terminated with 1000 μl of acetonitrile, and the remaining inventive compound was extracted. The centrifugation was conducted at 3000 rpm for 10 minutes, after which the supernatant was dried and dissolved again in 150 μl of 50% acetonitrile and quantitatively analyzed by HPLC. 0 minutes and 30 minutes after reaction, the amounts of the compounds of the present invention were compared thus evaluating the extent of metabolic stability.

Series [4] in a line: Solubility in physiological saline. The settings on record: saline or isotonic, thermodynamic from solid, 10 mg in 0.25 ml. It is filed as physicochemical. How it is done:
2) Evaluation of Solubility of Compound E-5
Compound E-5, Compound E-5•HCl, and Compound E-5•H2SO4 were respectively weighed to 10 mg, and 0.25 ml of physiological saline was added, and they were vortex mixed. The supernatant was filtered with a 0.22 μm filter and quantitatively analyzed by HPLC.

Series [5] in a line: Blood drug concentration upon intravenous administration. In kind it is in vivo. As to conditions: SD rat, 12.5 mg/kg. How it is done:
Compound E-5 was intravenously injected in 12.5 mg/kg to SD rat. 5, 15, 30, […], 120, 240, 1140 minutes after injection, the blood was taken and the drug concentration in the blood was quantitatively analyzed using an analyzer HPLC/MS/MS.

cDNA-expressed human hepatic CYP3A4, sequence (P08684 whole entry): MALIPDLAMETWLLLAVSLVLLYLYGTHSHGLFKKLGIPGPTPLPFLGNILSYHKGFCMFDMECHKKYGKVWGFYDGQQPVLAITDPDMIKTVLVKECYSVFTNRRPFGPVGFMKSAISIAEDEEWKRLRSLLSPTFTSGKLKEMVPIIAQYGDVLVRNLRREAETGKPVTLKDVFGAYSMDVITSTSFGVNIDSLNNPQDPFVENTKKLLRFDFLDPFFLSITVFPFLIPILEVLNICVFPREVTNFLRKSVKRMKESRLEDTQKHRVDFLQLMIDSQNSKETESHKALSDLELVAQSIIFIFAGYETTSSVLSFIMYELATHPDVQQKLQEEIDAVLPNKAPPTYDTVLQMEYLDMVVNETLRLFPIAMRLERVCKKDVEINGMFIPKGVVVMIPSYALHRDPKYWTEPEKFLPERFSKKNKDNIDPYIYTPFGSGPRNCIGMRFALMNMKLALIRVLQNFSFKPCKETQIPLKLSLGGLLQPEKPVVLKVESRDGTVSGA

Usually GI50 stands for the concentration that inhibits growth by half. Read a low GI50 as greater sensitivity of the cells. Usually IC50 stands for the concentration at which inhibition is half-maximal. Higher therefore signals a need for much substance. `C=CCN1CC(=O)N2[C@@H](Cc3ccc(O)cc3)C(=O)N(Cc3cccc4c(-c5ccc(NC(=O)c6ccc(N)nc6)cc5)cn(C)c34)C[C@@H]2N1C(=O)NCc1ccccc1` [Compound D-69] registered a GI50 in series [1] of 0.0011 µM. Besides, in series [2], the IC50 was > 25 µM. Moreover, the “MLM (%)” value in series [3] is given as 65%.
The corresponding values for `C=CCN1CC(=O)N2[C@@H](Cc3ccc(O)cc3)C(=O)N(Cc3cccc4c(-c5ccc(NC(=O)NCc6ccccc6)nc5)cn(C)c34)C[C@@H]2N1C(=O)NCc1ccccc1` [Compound D-93] are 0.0161 µM, 20.4 µM and 68.5%.
For `C=CCN1CC(=O)N2[C@@H](Cc3ccc(O)cc3)C(=O)N(Cc3cccc4c(-c5ccc(NC(=O)Nc6ccccc6)nc5)cn(C)c34)C[C@@H]2N1C(=O)NCc1ccccc1` [Compound D-85] the same measures were 0.0095 µM, > 25 µM and 64.3%.
For `C=CCN1CC(=O)N2[C@@H](Cc3ccc(O)cc3)C(=O)N(Cc3cccc4c(-c5ccc(NC(=O)Nc6ccccc6)cc5)cn(C)c34)C[C@@H]2N1C(=O)NCc1ccccc1` [Compound D-73] the same measures were 0.0144 µM, > 25 µM and 73.4%.
In turn, `C=CCN1CC(=O)N2C(Cc3ccc(O)cc3)C(=O)N(Cc3cccc4c(C(=O)Nc5ccc(N6CCN(Cc7ccc(OC)cc7)CC6)nc5)cn(C)c34)CC2N1C(=O)NCc1ccccc1` (stereo not shown) [Compound G-60] gave a GI50 in series [1] of 0.0065 µM. For the same compound, 21.5 µM corresponded to half-maximal inhibition in series [2] (IC50). Further, in series [3], the “MLM (%)” value was 52.8%.
As for `C=CCN1CC(=O)N2[C@@H](Cc3ccc(O)cc3)C(=O)N(Cc3cccc4c(-c5ccc(NC(=S)NC(=O)OCC)nc5)cn(C)c34)C[C@@H]2N1C(=O)NCc1ccccc1` [Compound H-4], in series [1], it took 0.015 µM to inhibit growth by half (GI50). In series [2], the IC50 was > 25 µM. Moreover, the “MLM (%)” value in series [3] turned out to be 66.8%.
On to `C=CCN1CC(=O)N2C(CN(Cc3cccc4c(C(=O)Nc5ccc(N6CCOCC6)nc5)cn(C)c34)C(=O)[C@@H]2Cc2ccc(O)cc2)N1C(=O)NCc1ccccc1` (stereo partly shown) [Compound G-36], for which the concentration for 50% growth inhibition (GI50) in series [1] was found to be 0.0013 µM. Also, in series [2], half-maximal inhibition (IC50) required 21.1 µM. Also, the “MLM (%)” value in series [3] is 36%.
In series [1], `C=CCN1CC(=O)N2[C@@H](Cc3ccc(O)cc3)C(=O)N(Cc3cccc4c(-c5ccc(C(=O)NC6CCC(NC(=O)OC(C)(C)C)CC6)cc5)cn(C)c34)C[C@@H]2N1C(=O)NCc1ccccc1` (stereo partly drawn) [Compound D-31] gave a GI50 of 0.0015 µM. Also, in series [2], the IC50 was > 25 µM. In addition, the “MLM (%)” value in series [3] was 107%.
The corresponding values for `C=CCN1CC(=O)N2C(Cc3ccc(O)cc3)C(=O)N(Cc3cccc4c(C(=O)Nc5ccc(N6CCN(c7ccccc7OC)CC6)nc5)cn(C)c34)CC2N1C(=O)NCc1ccccc1` (stereo not shown) [Compound G-59] are 0.0049 µM, > 25 µM and 61.9%.
In series [1], `C=CCN1CC(=O)N2[C@@H](Cc3ccc(O)cc3)C(=O)N(Cc3cccc4c(-c5ccc(NC(=O)Nc6ccc(OC)nc6)cc5)cn(C)c34)C[C@@H]2N1C(=O)NCc1ccccc1` [Compound D-77] had a GI50 of 0.0065 µM. In addition, in series [2], the half-maximal inhibitory concentration (IC50) was > 25 µM. In addition, the “MLM (%)” value in series [3] amounted to 65.4%.
For `C=CCN1CC(=O)N2[C@@H](Cc3ccc(O)cc3)C(=O)N(Cc3cccc4c(-c5ccc(NC(=O)NC6CCCCC6)cc5)cn(C)c34)C[C@@H]2N1C(=O)NCc1ccccc1` [Compound D-74] the same measures were 0.0112 µM, > 25 µM and 56.9%.
For `C=CCN1CC(=O)N2[C@@H](Cc3ccc(O)cc3)C(=O)N(Cc3cccc4c(-c5ccc(NC(=O)Nc6ccccc6)nc5)cn(C)c34)C[C@@H]2N1C(=O)NCc1ccccc1` [Compound C, (6S,9aS)-2-allyl-N-benzyl-6-(4-hydroxybenzyl)-8-((1-methyl-3-(6-(3-phenylureido)pyridine-3-yl)-1H-indol-7-yl)methyl)-4,7-dioxooctahydro-1H-pyrazino[2,1-c][1,2,4]-triazine-1-carboxamide] the same measures were 0.0095 µM, > 25 µM and 64%.
For `C=CCN1CC(=O)N2[C@@H](Cc3ccc(O)cc3)C(=O)N(Cc3cccc4c(-c5ccc(C(=O)Nc6ccc(N7CCN(C(C)=O)CC7)cc6)cc5)cn(C)c34)C[C@@H]2N1C(=O)NCc1ccccc1` [Compound D-10] the same measures were 0.0013 µM, > 25 µM and 88%.
`C=CCN1CC(=O)N2[C@@H](Cc3ccc(O)cc3)C(=O)N(Cc3cccc4c(-c5ccc(C(=O)NN6CCN(C)CC6)cc5)cn(C)c34)C[C@@H]2N1C(=O)NCc1ccccc1` [Compound D-45] showed a GI50 in series [1] of 0.0019 µM. This compound returned an IC50 in series [2] of 2.51 µM. In series [3], the “MLM (%)” value was determined as 49.4%.
In the case of `C=CCN1CC(=O)N2[C@@H](Cc3ccc(O)cc3)C(=O)N(Cc3cccc4c(-c5ccc(NC(=S)NC(=O)c6ccccc6)nc5)cn(C)c34)C[C@@H]2N1C(=O)NCc1ccccc1` [Compound H-5], the IC50 in series [2] was > 25 µM. In series [3], the “MLM (%)” value worked out at 74%.
The compound `C=CCN1CC(=O)N2[C@@H](Cc3ccc(O)cc3)C(=O)N(Cc3cccc4c(C(=O)Nc5ccc(N6CCCCC6)nc5)cn(C)c34)C[C@@H]2N1C(=O)NCc1ccccc1` [Compound G-35] came in with a GI50 in series [1] of 0.0014 µM. This compound also came in with a 50% inhibitory concentration (IC50) in series [2] of 12.2 µM. Also, the “MLM (%)” value in series [3] is on record as 34.9%.
The compound `C=CCN1CC(=O)N2[C@@H](Cc3ccc(O)cc3)C(=O)N(Cc3cccc4c(-c5ccc(NC(=O)Nc6ccc(OC)nc6)cc5)cn(C)c34)C[C@@H]2N1C(=O)NCc1ccccc1` [Compound B, (6S,9aS)-2-allyl-N-benzyl-6-(4-hydroxybenzyl)-8-((3-(4-(3-(6-methoxypyridin-3-yl)ureido)phenyl)-1-methyl-1H-indol-7-yl)methyl)-4,7-dioxooctahydro-1H-pyrazino[2,1-c][1,2,4]-triazine-1-carboxamide] displayed a GI50 in series [1] of 0.0065 µM. The half-maximal inhibitory concentration (IC50) in series [2] is > 25 µM. Besides, in series [3], the “MLM (%)” value turned out to be 65%.
As a reminder, the solubility is the concentration that dissolves in the medium under given conditions. The low end stands for a poorly soluble substance, the high end for a readily soluble substance. Usually AUC stands for concentration integrated over time. Higher therefore signals high exposure. As usually defined, the half-life is the time needed for the level to fall by half in the phase considered. The compound `C=CCN1CC(=O)N2[C@@H](Cc3ccc(O)cc3)C(=O)N(Cc3cccc4c(C(=O)N5CCN(CC)CC5)cn(C)c34)C[C@@H]2N1C(=O)NCc1ccccc1` [Compound E-5, (6S,9aS)-2-allyl-N-benzyl-8-((3-(4-ethylpiperazine-1-carbonyl)-1-methyl-1H-indol-7-yl)methyl)-6-(4-hydroxybenzyl)-4,7-dioxooctahydro-1H-pyrazino[2,1-c][1,2,4]-triazine-1-carboxamide] yielded a GI50 in series [1] of 0.0116 µM. In series [2], this compound gave an IC50 of 8.04 µM. The compound also returned a solubility in series [4] of 0.068 mg/mL (≈ 92.8 µM). This compound also had an AUC in series [5] of 4.53 µg·h/mL. Moreover, the half-life in series [5] (read-out: Half-life (t ½, hr) (converted)) was 1.59 h.
